Reference: ChEMBL document CHEMBL1201862, “PubChem BioAssay data set” (2004)
The source made the active and inactive calls.

How the values were obtained:
[1] = molecular target: T1, Polyadenylate-binding protein 1 (Homo sapiens, UniProt P11940); assay: PABP1 MLLE–PAM2 interaction inhibitors, dose response, miRNA deadenylation inhibitor project, biochemical, fluorescence polarization, Cy5-PAM2 peptide, secondary (AID 602260); assay type: functional; conditions: read-out: IC50_Mean
[2] = molecular target: T1, Polyadenylate-binding protein 1; assay: PABP1 MLLE–PAM2 binding inhibitor potency, dose response, biochemical, fluorescence polarization, FITC-PAM2 peptide (AID 602259); assay type: functional; conditions: read-out: IC50_Mean
[3] = molecular target: T2, Corticotropin-releasing factor receptor 2/Corticotropin-releasing factor-binding protein (Homo sapiens, UniProt P24387+Q13324); assay: Dose Response confirmation of uHTS hits for small molecule antagonists of the CRF-binding protein and CRF-R2 receptor complex.; assay type: functional; conditions: read-out: IC50_Mean
T2 sequence (Q13324 whole entry): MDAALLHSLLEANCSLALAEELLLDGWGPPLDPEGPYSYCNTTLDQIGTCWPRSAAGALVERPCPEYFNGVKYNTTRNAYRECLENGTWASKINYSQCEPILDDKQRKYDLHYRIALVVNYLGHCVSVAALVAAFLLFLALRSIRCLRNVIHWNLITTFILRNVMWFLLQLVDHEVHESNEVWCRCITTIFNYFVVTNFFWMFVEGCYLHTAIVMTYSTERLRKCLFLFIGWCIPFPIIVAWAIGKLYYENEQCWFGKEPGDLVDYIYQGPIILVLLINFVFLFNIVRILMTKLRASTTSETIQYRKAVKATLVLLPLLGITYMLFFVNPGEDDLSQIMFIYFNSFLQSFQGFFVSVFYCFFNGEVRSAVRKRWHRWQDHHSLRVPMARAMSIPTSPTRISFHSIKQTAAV
T2 sequence (P24387 whole entry): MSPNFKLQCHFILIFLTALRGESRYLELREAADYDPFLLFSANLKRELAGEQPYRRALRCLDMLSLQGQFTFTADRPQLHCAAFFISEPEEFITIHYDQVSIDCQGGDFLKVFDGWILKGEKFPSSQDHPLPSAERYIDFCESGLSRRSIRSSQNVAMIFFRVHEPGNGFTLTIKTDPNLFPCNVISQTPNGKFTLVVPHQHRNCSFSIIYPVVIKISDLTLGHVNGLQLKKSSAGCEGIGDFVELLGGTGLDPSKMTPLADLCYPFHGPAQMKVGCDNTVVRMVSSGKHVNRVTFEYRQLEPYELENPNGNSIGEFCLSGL

[4] = molecular target: T2, Corticotropin-releasing factor receptor 2/Corticotropin-releasing factor-binding protein; assay: activators of CRF receptor 2 with binding protein – uHTS hits, confirmation (AID 602473); assay type: functional; conditions: read-out: EC50_Mean
[5] = Shn3 3'UTR reporter inhibitors, dose response, cell-based, Clone20 osteoblasts, firefly luciferase, cherry-picked (AID 624132); assay type: functional;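 further: firefly luciferase luminescence from reporter carrying the Shn3 3'UTR in osteoblasts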
[6] = HepG2 cell cytotoxicity, dose response, cytotoxicity control for Shn3 inhibitor project, CellTiter-Glo, cherry-picked (AID 624134); assay type: functional, cell-based
[7] = control 3'UTR Renilla luciferase suppression, dose response, counter-screen for Shn3 inhibitor project, cell-based, Clone20-Shn3RL, cherry-picked (AID 624133); assay type: functional
[8] = molecular target: T3, RNA-binding protein pos-1 (Caenorhabditis elegans, UniProt G5EF15); assay: inhibitors of POS-1/mex-3 RNA binding, dose response, biochemical, fluorescence polarization (AID 1964);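 further: purified POS-1 fused to maltose binding protein made in E. coli; potency of compounds blocking POS-1 binding to fluorescent RNA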
T3 sequence (G5EF15 whole entry): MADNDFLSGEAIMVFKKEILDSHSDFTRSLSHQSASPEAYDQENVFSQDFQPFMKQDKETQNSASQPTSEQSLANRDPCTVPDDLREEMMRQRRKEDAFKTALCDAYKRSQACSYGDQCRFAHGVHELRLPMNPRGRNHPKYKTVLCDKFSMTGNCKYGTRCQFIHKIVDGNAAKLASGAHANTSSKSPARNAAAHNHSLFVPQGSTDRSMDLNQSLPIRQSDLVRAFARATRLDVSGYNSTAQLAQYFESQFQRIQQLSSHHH

cells [9] = assay type: functional, cell-based
[10] = molecular target: T4, Zinc finger protein mex-5 (Caenorhabditis elegans, UniProt Q9XUB2); assay: MEX-5/TCR-2 RNA interaction inhibitors, dose response, biochemical, C. elegans, fluorescence polarization (AID 1960)
T4 sequence (Q9XUB2 whole entry): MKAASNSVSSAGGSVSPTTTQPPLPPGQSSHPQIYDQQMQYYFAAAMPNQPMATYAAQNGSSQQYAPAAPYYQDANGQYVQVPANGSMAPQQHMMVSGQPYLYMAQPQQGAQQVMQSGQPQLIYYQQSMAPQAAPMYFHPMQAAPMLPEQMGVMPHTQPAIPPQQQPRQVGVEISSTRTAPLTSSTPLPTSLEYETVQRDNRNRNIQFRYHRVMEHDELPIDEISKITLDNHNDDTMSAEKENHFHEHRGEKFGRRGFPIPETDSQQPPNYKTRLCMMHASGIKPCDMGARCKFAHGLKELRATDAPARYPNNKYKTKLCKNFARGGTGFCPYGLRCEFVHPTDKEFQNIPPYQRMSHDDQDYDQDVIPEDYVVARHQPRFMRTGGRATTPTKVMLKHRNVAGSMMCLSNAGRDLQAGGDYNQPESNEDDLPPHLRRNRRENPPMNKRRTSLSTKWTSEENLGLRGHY

cells [11] = assay type: functional, cell-based; remark: listed apart in the source
[12] = Luminescence Cell-Based Dose Retest to Confirm Inhibitors of Cancer Stem Cells. [Related pubchem assays (depositor defined):AID2717, AID2721]; assay type: functional; conditions: Homo sapiens
INS1 = assay: beta cell apoptosis inhibitors, cytokine rescue, dose response, luminescence, retest (AID 449756); assay type: functional, cell-based; conditions: Rattus norvegicus;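 further: cell death triggered by IL-1 beta plus TNF-alpha plus IFN-gamma mixture; protective hits raise ATP signal compared with cytokine alone wells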
[13] = molecular target: FAD-linked sulfhydryl oxidase ALR (Homo sapiens, UniProt P55789); assay: inhibitors of human ALR sulfhydryl oxidase, dose response, biochemical, H2O2 detection, luminescence, cherry-pick (AID 493248)
FAD-linked sulfhydryl oxidase ALR, sequence (P55789 whole entry, the tested form may be a part): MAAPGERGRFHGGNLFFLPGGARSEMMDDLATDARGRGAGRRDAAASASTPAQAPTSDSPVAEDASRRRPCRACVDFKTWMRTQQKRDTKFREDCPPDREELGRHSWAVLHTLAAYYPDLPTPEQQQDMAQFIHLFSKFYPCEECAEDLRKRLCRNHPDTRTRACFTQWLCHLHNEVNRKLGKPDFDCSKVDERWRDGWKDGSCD

Fatty acid synthase [14] = molecular target: T5, Fatty acid synthase (Homo sapiens, UniProt P49327); assay: FAS thioesterase domain inhibitors, dose response, biochemical, endpoint fluorescence intensity, uHTS hits (AID 624327); assay type: functional;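 further: fluorescence from hydrolysis of an O-methyl fluorescein acyl ester substrate by the enzyme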
T5 sequence (P49327 whole entry, the tested form may be a part): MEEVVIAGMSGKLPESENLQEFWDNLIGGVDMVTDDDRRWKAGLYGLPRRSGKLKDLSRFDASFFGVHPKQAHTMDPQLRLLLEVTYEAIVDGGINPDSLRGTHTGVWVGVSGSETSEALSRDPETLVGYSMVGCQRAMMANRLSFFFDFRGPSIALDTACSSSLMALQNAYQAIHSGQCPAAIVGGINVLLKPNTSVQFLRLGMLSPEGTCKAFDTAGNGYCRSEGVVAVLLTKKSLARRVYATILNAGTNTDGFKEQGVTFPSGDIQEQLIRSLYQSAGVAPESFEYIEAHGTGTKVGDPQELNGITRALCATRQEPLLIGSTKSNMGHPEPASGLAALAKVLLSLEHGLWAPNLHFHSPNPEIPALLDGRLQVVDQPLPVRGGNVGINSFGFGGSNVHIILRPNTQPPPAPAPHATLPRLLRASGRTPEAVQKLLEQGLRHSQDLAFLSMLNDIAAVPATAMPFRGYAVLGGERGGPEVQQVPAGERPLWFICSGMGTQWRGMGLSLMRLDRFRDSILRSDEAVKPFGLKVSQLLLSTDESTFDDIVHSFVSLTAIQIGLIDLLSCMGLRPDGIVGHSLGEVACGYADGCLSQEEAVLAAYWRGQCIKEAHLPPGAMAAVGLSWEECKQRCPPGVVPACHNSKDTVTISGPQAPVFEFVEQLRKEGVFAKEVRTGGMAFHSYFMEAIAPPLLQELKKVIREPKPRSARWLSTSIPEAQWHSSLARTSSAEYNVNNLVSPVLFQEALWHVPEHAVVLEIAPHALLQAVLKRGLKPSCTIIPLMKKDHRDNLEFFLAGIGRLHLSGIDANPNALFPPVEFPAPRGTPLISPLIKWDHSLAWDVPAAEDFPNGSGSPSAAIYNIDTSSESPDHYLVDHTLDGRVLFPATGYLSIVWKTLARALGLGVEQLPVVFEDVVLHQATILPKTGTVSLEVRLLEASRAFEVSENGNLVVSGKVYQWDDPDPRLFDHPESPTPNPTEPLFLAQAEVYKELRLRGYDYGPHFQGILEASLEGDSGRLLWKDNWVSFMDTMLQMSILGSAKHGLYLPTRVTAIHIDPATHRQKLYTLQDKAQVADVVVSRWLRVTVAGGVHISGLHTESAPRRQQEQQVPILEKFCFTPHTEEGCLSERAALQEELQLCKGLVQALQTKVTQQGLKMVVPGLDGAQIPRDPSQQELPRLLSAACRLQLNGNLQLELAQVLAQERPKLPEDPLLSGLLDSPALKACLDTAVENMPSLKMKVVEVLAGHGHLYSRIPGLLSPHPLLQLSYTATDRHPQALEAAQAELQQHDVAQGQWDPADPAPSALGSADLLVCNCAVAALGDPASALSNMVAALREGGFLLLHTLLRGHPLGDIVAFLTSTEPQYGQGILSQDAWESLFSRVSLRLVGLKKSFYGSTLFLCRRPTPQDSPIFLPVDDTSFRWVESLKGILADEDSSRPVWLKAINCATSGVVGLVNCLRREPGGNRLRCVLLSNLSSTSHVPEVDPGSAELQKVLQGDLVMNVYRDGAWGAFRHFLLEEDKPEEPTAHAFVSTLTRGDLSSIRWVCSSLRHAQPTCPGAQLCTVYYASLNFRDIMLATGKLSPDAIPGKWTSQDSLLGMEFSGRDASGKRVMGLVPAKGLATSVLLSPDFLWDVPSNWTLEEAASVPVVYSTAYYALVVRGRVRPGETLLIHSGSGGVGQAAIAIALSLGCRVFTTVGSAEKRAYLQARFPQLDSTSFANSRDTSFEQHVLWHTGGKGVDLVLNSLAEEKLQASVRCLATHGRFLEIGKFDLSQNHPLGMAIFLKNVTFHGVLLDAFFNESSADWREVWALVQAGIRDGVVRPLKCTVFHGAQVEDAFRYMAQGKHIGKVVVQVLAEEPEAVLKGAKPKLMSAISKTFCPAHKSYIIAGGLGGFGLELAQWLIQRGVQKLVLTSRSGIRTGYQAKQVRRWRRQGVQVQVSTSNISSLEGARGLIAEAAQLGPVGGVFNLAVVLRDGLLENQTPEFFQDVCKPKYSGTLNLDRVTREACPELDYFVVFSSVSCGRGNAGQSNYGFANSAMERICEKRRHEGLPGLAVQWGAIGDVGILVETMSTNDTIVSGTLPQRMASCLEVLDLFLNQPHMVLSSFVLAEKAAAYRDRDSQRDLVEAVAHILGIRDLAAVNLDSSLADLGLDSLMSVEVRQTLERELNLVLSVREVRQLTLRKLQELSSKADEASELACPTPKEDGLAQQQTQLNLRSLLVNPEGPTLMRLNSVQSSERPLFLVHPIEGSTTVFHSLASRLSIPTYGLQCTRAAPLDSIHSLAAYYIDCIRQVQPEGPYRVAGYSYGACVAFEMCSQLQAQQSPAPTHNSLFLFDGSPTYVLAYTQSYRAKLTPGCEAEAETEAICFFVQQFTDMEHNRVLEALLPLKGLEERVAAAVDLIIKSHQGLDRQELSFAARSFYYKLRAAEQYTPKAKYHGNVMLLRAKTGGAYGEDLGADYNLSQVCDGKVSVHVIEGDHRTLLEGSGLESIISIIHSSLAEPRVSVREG

Fatty acid synthase [15] = molecular target: T5, Fatty acid synthase; assay: FAS thioesterase domain inhibitors, dose response, biochemical, kinetic fluorescence intensity (AID 624326); assay type: functional;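 further: rate of fluorescence rise from hydrolysis of a fluorogenic O-methyl fluorescein ester substrate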

T1 sequence (P11940 whole entry): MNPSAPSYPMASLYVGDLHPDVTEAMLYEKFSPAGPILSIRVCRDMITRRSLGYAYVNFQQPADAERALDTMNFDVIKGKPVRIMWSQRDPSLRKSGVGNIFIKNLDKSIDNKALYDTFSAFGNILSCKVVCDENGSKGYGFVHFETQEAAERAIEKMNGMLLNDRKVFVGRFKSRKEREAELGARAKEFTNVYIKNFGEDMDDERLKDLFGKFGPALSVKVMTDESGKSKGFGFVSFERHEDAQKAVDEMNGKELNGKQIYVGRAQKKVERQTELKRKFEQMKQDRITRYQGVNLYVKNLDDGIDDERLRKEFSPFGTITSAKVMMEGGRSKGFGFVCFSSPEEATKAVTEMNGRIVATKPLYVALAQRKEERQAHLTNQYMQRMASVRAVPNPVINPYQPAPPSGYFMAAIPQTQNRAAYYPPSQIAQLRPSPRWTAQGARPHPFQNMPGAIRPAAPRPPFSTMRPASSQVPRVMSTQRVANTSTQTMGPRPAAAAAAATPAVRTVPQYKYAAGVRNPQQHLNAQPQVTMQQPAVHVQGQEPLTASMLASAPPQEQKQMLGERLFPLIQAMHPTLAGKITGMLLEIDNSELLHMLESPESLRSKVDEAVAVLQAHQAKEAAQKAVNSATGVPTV

With CCOC(=O)c1sc(NC(=S)NC(=O)c2ccco2)nc1C the IC50 [1] was > 66 µM (inactive) and the IC50 [2] was > 66 µM (inactive).

For CCCCCNC1=CC(=O)CC(c2ccccc2)C1 (centres undefined), the IC50 [3] was > 47.1 µM (inactive) and the EC50 [4] was > 53 µM (inactive).

In the case of Cc1nn(-c2ccccc2)c(NC(=O)c2cccs2)c(-c2ccccc2Cl)c1=O, the IC50 [3] is reported as > 47.1 µM (inactive) and the EC50 [4] is reported as > 53 µM (inactive).

For O=C(c1ccccc1)C(CN1CCCCC1)c1ccccc1 (centres undefined), the AC50 [5] was 2.41 µM (active), the AC50 [6] was 15.7 µM (active) and the AC50 [7] was 5.56 µM (active).

With O=C(CCSc1nc2ccccc2s1)N/N=C/c1c(O)ccc2ccccc12 the EC50 [8] was 21.2 µM (active), the EC50 (cells [9]) was 8.97 µM (active) and the EC50 [10] was 14.6 µM (active). The EC50 (cells [11]) was 31.3 µM (active), the AC50 [12] was 4.52 µM (active) and the AC50 (INS1) was 1.95 µM (active).

For CCN(CC)S(=O)(=O)c1ccc(-c2ccc(S(=O)(=O)N(CC)CC)cc2)cc1, the AC50 [5] was 3.81 µM (active), the AC50 [6] was 6.43 µM (active) and the AC50 [7] was 3.13 µM (active).

For Cc1cc(C(=O)NC(=S)Nc2cccc(NC(=O)C(C)C)c2)ccc1[N+](=O)[O-], the IC50 [1] was > 66 µM (inactive) and the IC50 [2] was > 66 µM (inactive).

In the case of COc1cc2nc(SCc3c(C)noc3C)n(CCC3=CCCCC3)c(=O)c2cc1OC, the IC50 [3] is reported as > 47.1 µM (inactive) and the EC50 [4] is reported as > 53 µM (inactive).

For CC(=O)N1c2ccc(S(=O)(=O)N3CCC(C(=O)Nc4cccc(F)c4)CC3)cc2CC1C (centres undefined), the AC50 [5] was 4.54 µM (active), the AC50 [6] was 48.7 µM (active) and the AC50 [7] was 12 µM (active).

With COc1cc(C(=O)NCCc2nc3ccccc3n2C)cc(OC)c1OC the EC50 (cells [9]) was > 350 µM (not active) and the EC50 (cells [11]) was > 350 µM (not active).

In the case of Cc1cccc(NC(=O)C(NS(=O)(=O)c2ccc3c(c2)CCC(=O)N3)c2ccccc2)n1 (centres undefined), the IC50 [1] is reported as > 66 µM (inactive) and the IC50 [2] is reported as > 66 µM (inactive).

In the case of Cc1cccnc1NC(=S)NC(=O)c1oc2ccccc2c1C, the IC50 [1] is reported as > 66 µM (inactive) and the IC50 [2] is reported as > 66 µM (inactive).

With Cc1ccc(NC(S)=Nc2ccc(F)cc2)cc1 the IC50 [1] was > 66 µM (inactive) and the IC50 [2] was > 66 µM (inactive).

With Cc1ccc(/C=N/NC(=O)CN2CCN(Cc3ccccc3Cl)CC2)o1 the EC50 (cells [9]) was > 350 µM (not active) and the EC50 (cells [11]) was > 350 µM (not active).

With COC(=O)C(CC(=O)Nc1cc(C)ccc1C)Nc1ccccc1OC (centres undefined) the AC50 [13] was 13.1 µM (active), the IC50 [3] was > 47.1 µM (inactive) and the EC50 [4] was > 53 µM (inactive).

For CCCCCCCCNS(=O)(=O)CCNCc1ccc(OC)cc1, the IC50 [3] was > 47.1 µM (inactive) and the EC50 [4] was > 53 µM (inactive).

With COc1ccc(NC(=S)N/N=C/c2ccc(F)cc2)cc1OC the IC50 [1] was > 66 µM (inactive) and the IC50 [2] was > 66 µM (inactive).

In the case of O=C1[C@H]2[C@@H](c3ccc(F)cc3)N3C(=O)N(c4ccccc4)C(=O)[C@@]3(Cc3ccccc3)[C@H]2C(=O)N1C1CCCCC1, the AC50 [5] is reported as > 70 µM (inactive), the AC50 [6] is reported as 64.9 µM (active) and the AC50 [7] is reported as 31.3 µM (active). The IC50 (Fatty acid synthase [14]) was 17.5 µM (active) and the IC50 (Fatty acid synthase [15]) was 11 µM (active).

With CC1CCN(C(=O)C2CCN(S(=O)(=O)c3cccs3)CC2)CC1 the IC50 [3] was > 47.1 µM (inactive) and the EC50 [4] was > 53 µM (inactive).
